# Measurements as given in patent US6326023A, “Synergistic anti-malarial formulation” (priority 2000, dated 2001).
# Tests used:
# [1] = test system: P. yoelli nigeriensis (MDR II); test: Blood schizontocidal action of arteether α/β formulation by rectal route in infected Swiss mice; assay type: in vivo, P. yoelli nigeriensis (MDR II) in Swiss mice
# Procedure: α,β-Arteether mixture dissolved in neutralized ground-nut oil was administered to P. yoelli nigeriewis (MDR II) infected mice at 10 mg/kg to 20 mg/kg dose from day 0 to day 2 (for 3 consecutive days) by intra-rectal route. Drug was administered with 0.05-0.25 ml oil (vehicle) in single dose or in 2 divided dose daily. Parasitaemia was recorded daily from tail blood smears stained with Giemsa stain and results are given as % parasitaemia (means±SD). […] Presumptive arteether rectal formulation or suppository administration can save mortality in severe/complicated cases. α/β Arteether rectal route controls the severity of infection and prevents mortality in severe complicated comatose malaria cases and will be specially useful in infants, children and those having frequent vomiting and can not be given oral formulation initially. […] Rectal route α/β arteether formulation remains 1st line of emergency treatment of comatose P. falciparum cases in areas of MDR.
# [2] = test system: P. yoelli nigeriensis (MDR II); test: Blood schizonticidal activity of oral arteether formulation prepared in DMSO-distilled water in infected Swiss mice; assay type: in vivo, P. yoelli nigeriensis (MDR II) in Swiss mice; details: for Bioavailability by oral route: suspension in DMSO/distilled water
# Procedure: Swiss mice 25±1 gm infected intraperitoneally with 1×10^7 parasitized rbcs were administered α/β formulation, prepared in DMSO (3-4 drop) and then suspended in distilled water by oral administration at various doses ranging between 40-100 mg/kg for 5 consecutive days.
# Parasitaemia was recorded periodically from tail blood smears upto 28 days of observation. Both 60 and 80 mg/kg×5 doses were able to eliminate the prasitaemia upto 28 days of observation and were curative. […] A very high dose is required for curative action against MDR of infection and its bioavailability by oral route as suspension in D.W. is low.
# [3] = test system: P. yoelii nigeriensis (MDR II); test: Blood schizonticidal activity of α/β arteether formulation in neutralized oil by oral route in infected Swiss mice; assay type: in vivo, P. yoelii nigeriensis (MDR II) in Swiss mice
# Procedure: Efficacy of oral administration of arteether formulation for control of blood induced multi-drug resistant P. yoebi nigerensis (MDR II) in Swiss mice (25±g) was evaluated. The mice was infected intraperitoneafly with 1×10^5 parasitized RBC, and drug treatment 10,15,20 and 30 mg/kg was given once daily for five consecutive days (starting from day 0 to day 4). Blood smears made from tail blood and stained with giemsa were examined periodically till 28 days of infection to record parasitaemia levels and number of surviving/cured mice till 28 days.
# [4] = test system: P. knowlesi/P. fragile; details: intramuscular, rhesus monkey; cited from earlier work
# [5] = test system: P. yoelii nigeriensis; details: intramuscular; chloroquine, mefloquine and quinine resistant strain; cited from earlier work
compound,measurement,setting,value
CCOC1O[C@@H]2O[C@@]3(C)CC[C@H]4[C@H](C)CC[C@@H]([C@H]1C)[C@@]24OO3 (stereo partly drawn) [α/β arteether],Drug absorption by rectal route,"[1]; neutralized ground-nut oil, rectal",fairly rapid
same,Parasitaemia (mean ± SD),"[1]; rectal, 10 mg/kg × 3 days in 2 divided doses at 6 hrs, Day 4",0.0%
same,Parasitaemia (mean ± SD),"[1]; rectal, 10 mg/kg × 3 days in 2 divided doses at 6 hrs, Day 5",0.0%
same,Parasitaemia (mean ± SD),"[1]; rectal, 10 mg/kg × 3 days in 2 divided doses at 6 hrs, Day 11",10.25 ± 10.0%
same,Parasitaemia (mean ± SD),"[1]; rectal, 10 mg/kg × 3 days in 2 divided doses at 6 hrs, Day 28",0.0%
same,Number of animals (in parenthesis),"[1]; rectal, 10 mg/kg × 3 days in 2 divided doses, Day 11, 8 at Day 5",4
same,Number of animals (in parenthesis),"[1]; rectal, 10 mg/kg × 3 days in 2 divided doses, Day 28, 8 at Day 5",1
same,Parasitaemia (mean ± SD),"[1]; rectal, 10 mg/kg × 3 days, Day 4",0.0002 ± 0.001%
same,Number of animals negative (-ve),"[1]; rectal, 10 mg/kg × 3 days, Day 4, of 8",6
same,Parasitaemia (mean ± SD),"[1]; rectal, 10 mg/kg × 3 days, Day 5",0.002 ± 0.080%
same,Number of animals negative (-ve),"[1]; rectal, 10 mg/kg × 3 days, Day 5, of 8",6
same,Parasitaemia (mean ± SD),"[1]; rectal, 10 mg/kg × 3 days, Day 11",0.0%
same,Number of animals (in parenthesis),"[1]; rectal, 10 mg/kg × 3 days, Day 11, 8 at Day 5",3
same,Parasitaemia (mean ± SD),"[1]; rectal, 10 mg/kg × 3 days, Day 28",0.0%
same,Number of animals (in parenthesis),"[1]; rectal, 10 mg/kg × 3 days, Day 28, 8 at Day 5",3
same,Parasitaemia (mean ± SD),"[1]; rectal, 15 mg/kg × 3 days in 2 divided doses at 6 hrs, Day 4",0.0%
same,Parasitaemia (mean ± SD),"[1]; rectal, 15 mg/kg × 3 days in 2 divided doses at 6 hrs, Day 5",0.0%
same,Parasitaemia (mean ± SD),"[1]; rectal, 15 mg/kg × 3 days in 2 divided doses at 6 hrs, Day 11",0.0%
same,Parasitaemia (mean ± SD),"[1]; rectal, 15 mg/kg × 3 days in 2 divided doses at 6 hrs, Day 28",0.0%
same,Number of animals (in parenthesis),"[1]; rectal, 15 mg/kg × 3 days in 2 divided doses, Day 11, 8 at Day 5",4
same,Number of animals (in parenthesis),"[1]; rectal, 15 mg/kg × 3 days in 2 divided doses, Day 28, 8 at Day 5",4
same,Parasitaemia (mean ± SD),"[1]; rectal, 15 mg/kg × 3 days, Day 4",0.0%
same,Parasitaemia (mean ± SD),"[1]; rectal, 15 mg/kg × 3 days, Day 5",0.0%
same,Parasitaemia (mean ± SD),"[1]; rectal, 15 mg/kg × 3 days, Day 11",0.0%
same,Number of animals (in parenthesis),"[1]; rectal, 15 mg/kg × 3 days, Day 11, 8 at Day 5",4
same,Parasitaemia (mean ± SD),"[1]; rectal, 15 mg/kg × 3 days, Day 28",0.0%
same,Number of animals (in parenthesis),"[1]; rectal, 15 mg/kg × 3 days, Day 28, 8 at Day 5",4
same,Parasitaemia (mean ± SD),"[1]; rectal, 20 mg/kg × 3 days in 2 divided doses at 6 hrs, Day 4",0.0%
same,Parasitaemia (mean ± SD),"[1]; rectal, 20 mg/kg × 3 days in 2 divided doses at 6 hrs, Day 5",0.0%
same,Parasitaemia (mean ± SD),"[1]; rectal, 20 mg/kg × 3 days in 2 divided doses at 6 hrs, Day 11",0.0%
same,Parasitaemia (mean ± SD),"[1]; rectal, 20 mg/kg × 3 days in 2 divided doses at 6 hrs, Day 28",0.0%
same,Number of animals (in parenthesis),"[1]; rectal, 20 mg/kg × 3 days in 2 divided doses, Day 11, 8 at Day 5",6
same,Number of animals (in parenthesis),"[1]; rectal, 20 mg/kg × 3 days in 2 divided doses, Day 28, 8 at Day 5",6
same,Parasitaemia (mean ± SD),"[1]; rectal, 20 mg/kg × 3 days, Day 4",0.0%
same,Parasitaemia (mean ± SD),"[1]; rectal, 20 mg/kg × 3 days, Day 5",0.0%
same,Parasitaemia (mean ± SD),"[1]; rectal, 20 mg/kg × 3 days, Day 11",0.0%
same,Number of animals (in parenthesis),"[1]; rectal, 20 mg/kg × 3 days, Day 11, 8 at Day 5",5
same,Parasitaemia (mean ± SD),"[1]; rectal, 20 mg/kg × 3 days, Day 28",0.0%
same,Number of animals (in parenthesis),"[1]; rectal, 20 mg/kg × 3 days, Day 28, 8 at Day 5",5
same,Suppression of parasitaemia after treatment,"[1]; rectal, 10.0, 15.0 and 20.0 mg/kg, upto 5 days",suppressed the parasitaemia
same,minimal effective dose,"[2]; Plasmodium yoelii, po, read-out: Curative dose / dose needed for total clearance",60 mg/kg
same,Parasitaemia,"[2]; oral, DMSO-distilled water, 40 mg/kg × 5, Day 4",Nil
same,Parasitaemia,"[2]; oral, DMSO-distilled water, 40 mg/kg × 5, Day 7",Nil
same,Parasitaemia,"[2]; oral, DMSO-distilled water, 40 mg/kg × 5, Day 10",3.86%
same,Parasitaemia,"[2]; oral, DMSO-distilled water, 40 mg/kg × 5, Day 14",3.5 ± 8.5%
same,Parasitaemia,"[2]; oral, DMSO-distilled water, 40 mg/kg × 5, Day 21",Nil
same,Parasitaemia,"[2]; oral, DMSO-distilled water, 40 mg/kg × 5, Day 28",Nil
same,Suppression of parasitaemia,"[2]; oral, DMSO-distilled water, 40 mg/kg × 5, MDR strain","transient suppression of parasitaemia, but was not curative"
same,Parasitaemia,"[2]; oral, DMSO-distilled water, 60 mg/kg × 5, Day 4",Nil
same,Parasitaemia,"[2]; oral, DMSO-distilled water, 60 mg/kg × 5, Day 7",Nil
same,Parasitaemia,"[2]; oral, DMSO-distilled water, 60 mg/kg × 5, Day 10",Nil
same,Parasitaemia,"[2]; oral, DMSO-distilled water, 60 mg/kg × 5, Day 14",Nil
same,Parasitaemia,"[2]; oral, DMSO-distilled water, 60 mg/kg × 5, Day 21",Nil
same,Parasitaemia,"[2]; oral, DMSO-distilled water, 60 mg/kg × 5, Day 28",Nil
same,Parasitaemia,"[2]; oral, DMSO-distilled water, 80 mg/kg × 5, Day 4",Nil
same,Parasitaemia,"[2]; oral, DMSO-distilled water, 80 mg/kg × 5, Day 7",Nil
same,Parasitaemia,"[2]; oral, DMSO-distilled water, 80 mg/kg × 5, Day 10",Nil
same,Parasitaemia,"[2]; oral, DMSO-distilled water, 80 mg/kg × 5, Day 14",Nil
same,Parasitaemia,"[2]; oral, DMSO-distilled water, 80 mg/kg × 5, Day 21",Nil
same,Parasitaemia,"[2]; oral, DMSO-distilled water, 80 mg/kg × 5, Day 28",Nil
same,Parasitaemia,"[2]; oral, DMSO-distilled water, 100 mg/kg × 5, Day 4",Nil
same,Parasitaemia,"[2]; oral, DMSO-distilled water, 100 mg/kg × 5, Day 7",Nil
same,Parasitaemia,"[2]; oral, DMSO-distilled water, 100 mg/kg × 5, Day 10",Nil
same,Parasitaemia,"[2]; oral, DMSO-distilled water, 100 mg/kg × 5, Day 14",Nil
same,Parasitaemia,"[2]; oral, DMSO-distilled water, 100 mg/kg × 5, Day 21",Nil
same,Parasitaemia,"[2]; oral, DMSO-distilled water, 100 mg/kg × 5, Day 28",Nil
same,Curative action (elimination of parasitaemia),"[2]; oral, DMSO-distilled water, 60 and 80 mg/kg × 5, upto 28 days",curative
same,Bioavailability by oral route,[2],low
same,Bioavailability by oral route,[2]; listed as arteether α/β,of lower order
same,Parasitaemia (mean ± SD),"[3]; 10 mg/kg × 5 days, Day 6",0.9 ± 1.0%
same,Parasitaemia (mean ± SD),"[3]; 10 mg/kg × 5 days, Day 9",41 ± 32.8%
same,Parasitaemia (mean ± SD),"[3]; 10 mg/kg × 5 days, Day 12",0.0%
same,Number of mice surviving,"[3]; 10 mg/kg × 5 days, Day 12, of 8",2
same,Parasitaemia (mean ± SD),"[3]; 10 mg/kg × 5 days, Day 14",0.0%
same,Number of mice surviving,"[3]; 10 mg/kg × 5 days, Day 14, of 8",2
same,Parasitaemia (mean ± SD),"[3]; 10 mg/kg × 5 days, Day 28",0.0%
same,Number of mice surviving,"[3]; 10 mg/kg × 5 days, Day 28, of 8",2
same,Parasitaemia (mean ± SD),"[3]; 15 mg/kg × 5 days, Day 6",0.0%
same,Parasitaemia (mean ± SD),"[3]; 15 mg/kg × 5 days, Day 9",5.12 ± 5.7%
same,Parasitaemia (mean ± SD),"[3]; 15 mg/kg × 5 days, Day 12",0.0%
same,Number of mice surviving,"[3]; 15 mg/kg × 5 days, Day 12, of 8",4
same,Parasitaemia (mean ± SD),"[3]; 15 mg/kg × 5 days, Day 14",0.0%
same,Number of mice surviving,"[3]; 15 mg/kg × 5 days, Day 14, of 8",4
same,Parasitaemia (mean ± SD),"[3]; 15 mg/kg × 5 days, Day 28",0.0%
same,Number of mice surviving,"[3]; 15 mg/kg × 5 days, Day 28, of 8",4
same,Parasitaemia (mean ± SD),"[3]; 20 mg/kg × 5 days, Day 6",0.0%
same,Parasitaemia (mean ± SD),"[3]; 20 mg/kg × 5 days, Day 9",3.75 ± 10.6%
same,Parasitaemia (mean ± SD),"[3]; 20 mg/kg × 5 days, Day 12",18.8 ± 32.5%
same,Parasitaemia (mean ± SD),"[3]; 20 mg/kg × 5 days, Day 14",0.0%
same,Number of mice surviving,"[3]; 20 mg/kg × 5 days, Day 14, of 8",5
same,Parasitaemia (mean ± SD),"[3]; 20 mg/kg × 5 days, Day 28",0.0%
same,Number of mice surviving,"[3]; 20 mg/kg × 5 days, Day 28, of 8",5
same,Parasitaemia (mean ± SD),"[3]; 30 mg/kg × 5 days, Day 6",0.0%
same,Parasitaemia (mean ± SD),"[3]; 30 mg/kg × 5 days, Day 9",0.0%
same,Parasitaemia (mean ± SD),"[3]; 30 mg/kg × 5 days, Day 12",0.0%
same,Parasitaemia (mean ± SD),"[3]; 30 mg/kg × 5 days, Day 14",0.0%
same,Number of mice surviving,"[3]; 30 mg/kg × 5 days, Day 14, of 8",8
same,Parasitaemia (mean ± SD),"[3]; 30 mg/kg × 5 days, Day 28",0.0%
same,Number of mice surviving,"[3]; 30 mg/kg × 5 days, Day 28, of 8",8
same,Cure of experimental cerebral malaria,[4],cures experimental cerebral malaria infections
same,Antimalarial activity,[5],shows antimalarial activity
